Measured values reported in US20190040106A1, “USE OF HUMAN DERIVED IMMUNOSUPPRESSIVE PROTEINS AND PEPTIDES AS MEDICAMENTS” (AIMVION A/S, priority 2015, published 2019).
Bridge positions count the residues as written; N and C are the ends. Ends that are not written are not given here. Peptide text beside a SMILES is read from it. I, II: the chains in the order shown.

Experiments:
[1] = system: murine model of collagen-induced arthritis; assay: Collagen-induced arthritis model (CIA model), study number 2, Example 12; assay type: in vivo, female DBA/1J mice; design: key to Terminal Individual Paw Score, Front right, group mean / Terminal Individual Paw Score, Front left, group mean / Terminal Individual Paw Score, Rear right, group mean / Terminal Individual Paw Score, Rear left, group mean: 0 = no arthritis, 4 = severe arthritis of entire paw; key to Arthritic Index (AI), group mean: sum of four paw scores, each 0 = none to 4 = severe; conditions: for Terminal Individual Paw Score, Front left, group mean / Terminal Individual Paw Score, Front right, group mean / Terminal Individual Paw Score, Rear left, group mean / Terminal Individual Paw Score, Rear right, group mean: day 42; for Arthritic Index (AI), group mean: peptides 4 μg/mouse, methotrexate 1 mg/kg, subcutaneous; for effect on diseased mouse weight / incidence of disease / reduction in disease severity: once daily subcutaneous 4 μg/mouse; for incidence of disease: starting one hour prior to disease induction; for reduction in disease severity: at the termination of the study
Procedure: The CIA model as described in an Example 9 is the “standard” animal model for evaluation of anti-arthritic activity based on immunization with bovine collagen to develop antibodies against bone and cartilage.
Here we present data on investigating in vivo effect of the HERV-Env59, SG#2, and SG#5 and SG#15 peptides. The aim was to determine anti-arthritic dosing paradigm in a murine model of collagen-induced arthritis. This study was carried out in female DBA/1J mice. The effect of the Env59 ISU peptide, SG#2, SG#5 or SG#15 peptide on disease development is compared with a methotrexate MTX (positive control) or saline treated control group.
Day 0: The mice were weighted and injected subcutaneously at the nape of the neck as in the table below (table 6):
(§1) An hour later, the mice were injected subcutaneously at the base of the tail with 50 μl of the collagen/CFA emulsion.
(§2) Mice were scored for signs of arthritis every Monday, Wednesday, and Friday during the next 41 days as follows: • Each paw receives a score • 0=no visible effects of arthritis • 1=edema and/or erythema of 1 digit • 2=edema and/or erythema of 2 digits • 3=edema and/or erythema of more than 2 digits • 4=severe arthritis of entire paw and digits
(§3) The Arthritic Index (AI) was calculated by the addition of individual paw scores.
(§4) Day 42 The mice were weighted and scored for signs of arthritis.

[2] = system: murine model of collagen-induced arthritis; assay: Collagen-induced arthritis model (CIA model), Example 9; assay type: in vivo, female DBA/1J mice; design: key to terminal individual paw score, Front right, group mean / terminal individual paw score, Front left, group mean / terminal individual paw score, Rear right, group mean / terminal individual paw score, Rear left, group mean: paw score 0 = no arthritis to 4 = severe arthritis of entire paw; key to Arthritic Index (AI), group mean: sum of four paw scores, each 0 (no arthritis) to 4 (severe); max 16; conditions: for Arthritic Index (AI), group mean: peptide 4 μg/mouse, methotrexate 3 mg/kg, subcutaneous
Procedure: The CIA model is the “standard” animal model for evaluation of anti-arthritic activity based on immunization with bovine collagen to develop antibodies against bone and cartilage.
The aim was to determine anti-arthritic dosing paradigm in a murine model of collagen-induced arthritis. This study was carried out in female DBA/1J mice. The effect of the Env59 ISU peptides on disease development is compared with a methotrexate MTX (positive control) or saline treated control group.
Day 0: The mice were weighted and injected subcutaneously at the nape of the neck as in the table below (table 3):
as §1, §2, §3, §4

THP-1 or HT-1080 cells = assay: CellTiter-Blue Cell Viability Assay, toxicity profile of peptides; conditions: about 20 h exposure
Source text: Here, we examined the cytotoxicity effect of peptides SG#1 to SG#17 (ID1031 to ID1047) on two human cell lines THP-1 or HT-1080 cells.
The CellTiter-Blue® Cell Viability Assay provides a homogenous, fluorometric method for estimating the number of viable cells present in multiwall plates. It uses the indicator dye resazurin to measure the metabolic capacity of cells—an indicator of cell viability. Viable cells retain the ability to reduce resazurin into resorufin, which is highly fluorescent.
The CellTiter-Blue® Reagent is a buffered solution containing highly purified resazurin. Resazurin is dark blue in color and has little intrinsic fluorescence. However, when it is reduced to resorufin, it becomes pink and highly fluorescent (579EX/584EM).
• 1. Set up 96-well assay plates containing cells in culture medium. For HT-1080, plate 1.6×10^4 cells per well on the Day 1 of the experiment. Cells are plated in 100 μl complete culture medium (DMEM) per well. • 2. On day 2, gently remove medium and add 50 μl of complete DMEM medium, add peptides and vehicle controls to appropriate wells so the final volume is 100 μl in each well. Supplement with complete DMEM where necessary. • 3. Culture cells for the desired test exposure period, about 20 h. • 4. On day 3, remove assay plates from 37° C. incubator and add 20 μl/well of CellTiter-Blue® Reagent. • 5. Shake for 10 seconds. • 6. Incubate using standard cell culture conditions for 4 hours. • 7. Shake plate for 10 seconds and record fluorescence at 560/590 nm
Toxicity profile for peptides SG#1 to SG#17 (ID1031 to ID1047). All peptides were tested at the dosage increment (10 nm, 30 nM, 100 nM, 1 μM, 10 μM, 30 μM, 100 μM and 300 μM).

CN(Cc1cnc2nc(N)nc(N)c2n1)c1ccc(C(=O)N[C@@H](CCC(=O)O)C(=O)O)cc1 [Methotrexate, reference compound]
Terminal Individual Paw Score, Front left, group mean [1]: 0 | Terminal Individual Paw Score, Front right, group mean [1]: 0 | Terminal Individual Paw Score, Rear left, group mean [1]: 0 | Terminal Individual Paw Score, Rear right, group mean [1]: 0 | Arthritic Index (AI), group mean ([1]; study day 14): 0 | Arthritic Index (AI), group mean ([1]; study day 21): 0 | Arthritic Index (AI), group mean ([1]; study day 25): 0 | Arthritic Index (AI), group mean ([1]; study day 27): 0 | Arthritic Index (AI), group mean ([1]; study day 29): 0 | Arthritic Index (AI), group mean ([1]; study day 32): 0 | Arthritic Index (AI), group mean ([1]; study day 34): 0 | Arthritic Index (AI), group mean ([1]; study day 36): 0 | Arthritic Index (AI), group mean ([1]; study day 39): 0 | Arthritic Index (AI), group mean ([1]; study day 41): 0 | Arthritic Index (AI), group mean ([1]; study day 42): 0 | terminal individual paw score, Front left, group mean ([2]; day 42): 0 | terminal individual paw score, Front right, group mean ([2]; day 42): 0 | terminal individual paw score, Rear left, group mean ([2]; day 42): 0 | terminal individual paw score, Rear right, group mean ([2]; day 42): 0 | Arthritic Index (AI), group mean ([2]; study day 21): 0 | Arthritic Index (AI), group mean ([2]; study day 22): 0 | Arthritic Index (AI), group mean ([2]; study day 25): 0 | Arthritic Index (AI), group mean ([2]; study day 27): 0 | Arthritic Index (AI), group mean ([2]; study day 29): 0 | Arthritic Index (AI), group mean ([2]; study day 32): 0 | Arthritic Index (AI), group mean ([2]; study day 34): 0 | Arthritic Index (AI), group mean ([2]; study day 36): 0 | Arthritic Index (AI), group mean ([2]; study day 38): 0 | Arthritic Index (AI), group mean ([2]; study day 41): 0 | Arthritic Index (AI), group mean ([2]; study day 42): 0

CC[C@H](C)[C@H](NC(=O)[C@H](CO)NC(=O)[C@H](CC(C)C)NC(=O)CNC(=O)[C@H](CCCCNC(=O)[C@H](CC(C)C)NC(=O)CNC(=O)[C@H](CCCNC(=N)N)NC(=O)[C@H](CCCNC(=N)N)NC(=O)[C@H](CC(N)=O)NC(=O)[C@H](CCC(N)=O)NC(=O)[C@@H](N)CC(C)C)NC(=O)[C@H](CC(C)C)NC(=O)CNC(=O)[C@H](CCCNC(=N)N)NC(=O)[C@H](CCCNC(=N)N)NC(=O)[C@H](CC(N)=O)NC(=O)[C@H](CCC(N)=O)NC(=O)[C@@H](N)CC(C)C)C(=O)N[C@@H](CC(C)C)C(=O)N[C@@H](CC(C)C)C(=O)N[C@@H](CC(N)=O)C(=O)N[C@@H](CCC(=O)O)C(=O)N[C@@H](CCC(=O)O)C(=O)O [SG#16] (I: H-LQNRRGLKGLSILLNEE-OH / II: H-LQNRRGL; amide I:8-II:C)
Toxicity yes/no at the 300 μM conc. (THP-1 or HT-1080 cells): No

GLSILLNEECGPGPGP (Possibly HERV) [SG#5]
Toxicity yes/no at the 300 μM conc. (THP-1 or HT-1080 cells): No | Terminal Individual Paw Score, Front left, group mean [1]: 1.3 | Terminal Individual Paw Score, Front right, group mean [1]: 1.1 | Terminal Individual Paw Score, Rear left, group mean [1]: 0.3 | Terminal Individual Paw Score, Rear right, group mean [1]: 1.0 | effect on diseased mouse weight [1]: no effect | incidence of disease [1]: 80% | reduction in disease severity [1]: 70% | Arthritic Index (AI), group mean ([1]; study day 14): 0 | Arthritic Index (AI), group mean ([1]; study day 21): 0 | Arthritic Index (AI), group mean ([1]; study day 25): 0 | Arthritic Index (AI), group mean ([1]; study day 27): 0.0 | Arthritic Index (AI), group mean ([1]; study day 29): 0.9 | Arthritic Index (AI), group mean ([1]; study day 32): 1.1 | Arthritic Index (AI), group mean ([1]; study day 34): 1.3 | Arthritic Index (AI), group mean ([1]; study day 36): 2.1 | Arthritic Index (AI), group mean ([1]; study day 39): 3.3 | Arthritic Index (AI), group mean ([1]; study day 41): 3.5 | Arthritic Index (AI), group mean ([1]; study day 42): 3.6

LNRKAIGLSILLNEECGPGPGP (Possibly HERV) [SG#6]
Toxicity yes/no at the 300 μM conc. (THP-1 or HT-1080 cells): No

LQNKKGLGLSILLNEECGPGPGP (Possibly HERV) [SG#9]
Toxicity yes/no at the 300 μM conc. (THP-1 or HT-1080 cells): No

LQNKRGLGLSILLNEECGPGPGP (Possibly HERV) [SG#8]
Toxicity yes/no at the 300 μM conc. (THP-1 or HT-1080 cells): No

LQNRRGLDLSILLNEECGPGPGP (Possibly HERV) [SG#3]
Toxicity yes/no at the 300 μM conc. (THP-1 or HT-1080 cells): No

LQNRRGLGLSILLNC (Possibly HERV) [SG#4]
Toxicity yes/no at the 300 μM conc. (THP-1 or HT-1080 cells): No

LQNRRGLGLSILLNEE [SG#13]
Toxicity yes/no at the 300 μM conc. (THP-1 or HT-1080 cells): No

LQNRRGLGLSILLNEECEEGPGPGP (Possibly HERV) [SG#2]
Toxicity yes/no at the 300 μM conc. (THP-1 or HT-1080 cells): No | Terminal Individual Paw Score, Front left, group mean [1]: 0.4 | Terminal Individual Paw Score, Front right, group mean [1]: 0.4 | Terminal Individual Paw Score, Rear left, group mean [1]: 0.1 | Terminal Individual Paw Score, Rear right, group mean [1]: 0.5 | effect on diseased mouse weight [1]: no effect | incidence of disease [1]: 30% | reduction in disease severity [1]: 90% | Arthritic Index (AI), group mean ([1]; study day 14): 0 | Arthritic Index (AI), group mean ([1]; study day 21): 0 | Arthritic Index (AI), group mean ([1]; study day 25): 0 | Arthritic Index (AI), group mean ([1]; study day 27): 0.4 | Arthritic Index (AI), group mean ([1]; study day 29): 0.4 | Arthritic Index (AI), group mean ([1]; study day 32): 0.9 | Arthritic Index (AI), group mean ([1]; study day 34): 0.9 | Arthritic Index (AI), group mean ([1]; study day 36): 0.9 | Arthritic Index (AI), group mean ([1]; study day 39): 0.9 | Arthritic Index (AI), group mean ([1]; study day 41): 1.0 | Arthritic Index (AI), group mean ([1]; study day 42): 1.4

LQNRRGLGLSILLNEECGPGPGP [SG#10]
Toxicity yes/no at the 300 μM conc. (THP-1 or HT-1080 cells): No

LQNRRGLGLSILLNEECGPGPGP [SG#17] (Possibly HERV)
Toxicity yes/no at the 300 μM conc. (THP-1 or HT-1080 cells): No

LQNRRGLGLSILLNEECGPKK (Possibly HERV) [SG#11]
Toxicity yes/no at the 300 μM conc. (THP-1 or HT-1080 cells): No

LQNRRGLGLSILLNEECKKGPGPGP (Possibly HERV) [SG#1]
Toxicity yes/no at the 300 μM conc. (THP-1 or HT-1080 cells): No

LQNRRGLGLSILLNEELQNRRGL [SG#14]
Toxicity yes/no at the 300 μM conc. (THP-1 or HT-1080 cells): No

LQNRRGLGLSILLNEELQNRRGLC (Possibly HERV) [SG#12]
Toxicity yes/no at the 300 μM conc. (THP-1 or HT-1080 cells): No

LQNRRGLLQNRRGLGLSILLNEE (Possibly HERV) [SG#15]
Toxicity yes/no at the 300 μM conc. (THP-1 or HT-1080 cells): No | Terminal Individual Paw Score, Front left, group mean [1]: 0.1 | Terminal Individual Paw Score, Front right, group mean [1]: 0 | Terminal Individual Paw Score, Rear left, group mean [1]: 0.3 | Terminal Individual Paw Score, Rear right, group mean [1]: 0 | effect on diseased mouse weight [1]: no effect | incidence of disease [1]: 30% | reduction in disease severity [1]: 97% | Arthritic Index (AI), group mean ([1]; study day 14): 0 | Arthritic Index (AI), group mean ([1]; study day 21): 0 | Arthritic Index (AI), group mean ([1]; study day 25): 0 | Arthritic Index (AI), group mean ([1]; study day 27): 0.1 | Arthritic Index (AI), group mean ([1]; study day 29): 0.1 | Arthritic Index (AI), group mean ([1]; study day 32): 0.1 | Arthritic Index (AI), group mean ([1]; study day 34): 0.3 | Arthritic Index (AI), group mean ([1]; study day 36): 0.3 | Arthritic Index (AI), group mean ([1]; study day 39): 0.3 | Arthritic Index (AI), group mean ([1]; study day 41): 0.3 | Arthritic Index (AI), group mean ([1]; study day 42): 0.4
